Data reported in BigSolDB 2.1.

Which solubility (mole fraction) (in ethanol, 278.15 K) does the source give for `O=C1c2cccc(O)c2C(=O)c2c(O)cc(CO)cc21` here?
Its solubility (mole fraction) is 1.72e-05.

What about the solubility (mole fraction) (in ethanol, 283.15 K) of the same compound?
The solubility (mole fraction) was 2.11e-05.

And the solubility (mole fraction) (in ethanol, 288.15 K)?
Its solubility (mole fraction) is 2.45e-05.

What about the solubility (mole fraction) (in ethanol, 293.15 K) of the same compound?
The solubility (mole fraction) was 3.09e-05.

What about the solubility (mole fraction) (in ethanol, 298.15 K) of the same compound?
Its solubility (mole fraction) is 3.74e-05.

What about the solubility (mole fraction) (in ethanol, 303.15 K) of the same compound?
The solubility (mole fraction) was 4.36e-05.

And the solubility (mole fraction) (in ethanol, 308.15 K)?
The solubility (mole fraction) was 5.05e-05.

And the solubility (mole fraction) (in ethanol, 313.15 K)?
Its solubility (mole fraction) is 6.2e-05.

And the solubility (mole fraction) (in ethanol, 318.15 K)?
The solubility (mole fraction) was 7.56e-05.

What about the solubility (mole fraction) (in methanol, 278.15 K) of the same compound?
The solubility (mole fraction) was 1.66e-06.

What about the solubility (mole fraction) (in methanol, 283.15 K) of the same compound?
Its solubility (mole fraction) is 2.23e-06.

And the solubility (mole fraction) (in methanol, 288.15 K)?
The solubility (mole fraction) was 3.1e-06.

What about the solubility (mole fraction) (in methanol, 293.15 K) of the same compound?
Its solubility (mole fraction) is 4.29e-06.

And the solubility (mole fraction) (in methanol, 298.15 K)?
The solubility (mole fraction) was 5.39e-06.

What about the solubility (mole fraction) (in methanol, 303.15 K) of the same compound?
The solubility (mole fraction) was 7.71e-06.

And the solubility (mole fraction) (in methanol, 308.15 K)?
Its solubility (mole fraction) is 1.13e-05.

What about the solubility (mole fraction) (in methanol, 313.15 K) of the same compound?
Its solubility (mole fraction) is 1.6e-05.

What about the solubility (mole fraction) (in methanol, 318.15 K) of the same compound?
Its solubility (mole fraction) is 2.33e-05.

And the solubility (mole fraction) (in n-butanol, 278.15 K)?
Its solubility (mole fraction) is 4.59e-05.

What about the solubility (mole fraction) (in n-butanol, 283.15 K) of the same compound?
Its solubility (mole fraction) is 5.17e-05.

And the solubility (mole fraction) (in n-butanol, 288.15 K)?
Its solubility (mole fraction) is 6.49e-05.

And the solubility (mole fraction) (in n-butanol, 293.15 K)?
The solubility (mole fraction) was 7.71e-05.

And the solubility (mole fraction) (in n-butanol, 298.15 K)?
The solubility (mole fraction) was 9.05e-05.

What about the solubility (mole fraction) (in n-butanol, 303.15 K) of the same compound?
Its solubility (mole fraction) is 0.000102.

And the solubility (mole fraction) (in n-butanol, 308.15 K)?
Its solubility (mole fraction) is 0.000122.

And the solubility (mole fraction) (in n-butanol, 313.15 K)?
Its solubility (mole fraction) is 0.000137.

And the solubility (mole fraction) (in n-butanol, 318.15 K)?
Its solubility (mole fraction) is 0.00016.

What about the solubility (mole fraction) (in n-pentanol, 278.15 K) of the same compound?
Its solubility (mole fraction) is 7e-05.

And the solubility (mole fraction) (in n-pentanol, 283.15 K)?
Its solubility (mole fraction) is 8.33e-05.

And the solubility (mole fraction) (in n-pentanol, 288.15 K)?
The solubility (mole fraction) was 0.0001.

And the solubility (mole fraction) (in n-pentanol, 293.15 K)?
The solubility (mole fraction) was 0.000118.

What about the solubility (mole fraction) (in n-pentanol, 298.15 K) of the same compound?
Its solubility (mole fraction) is 0.000138.

And the solubility (mole fraction) (in n-pentanol, 303.15 K)?
Its solubility (mole fraction) is 0.000158.

What about the solubility (mole fraction) (in n-pentanol, 308.15 K) of the same compound?
The solubility (mole fraction) was 0.00018.

What about the solubility (mole fraction) (in n-pentanol, 313.15 K) of the same compound?
The solubility (mole fraction) was 0.000207.

And the solubility (mole fraction) (in n-pentanol, 318.15 K)?
Its solubility (mole fraction) is 0.000245.

What about the solubility (mole fraction) (in n-propanol, 278.15 K) of the same compound?
The solubility (mole fraction) was 1.82e-05.

And the solubility (mole fraction) (in n-propanol, 283.15 K)?
The solubility (mole fraction) was 2.49e-05.

And the solubility (mole fraction) (in n-propanol, 288.15 K)?
Its solubility (mole fraction) is 3.07e-05.

What about the solubility (mole fraction) (in n-propanol, 293.15 K) of the same compound?
The solubility (mole fraction) was 4e-05.

What about the solubility (mole fraction) (in n-propanol, 298.15 K) of the same compound?
Its solubility (mole fraction) is 5.26e-05.

What about the solubility (mole fraction) (in n-propanol, 303.15 K) of the same compound?
Its solubility (mole fraction) is 6.56e-05.

And the solubility (mole fraction) (in n-propanol, 308.15 K)?
Its solubility (mole fraction) is 7.38e-05.

What about the solubility (mole fraction) (in n-propanol, 313.15 K) of the same compound?
Its solubility (mole fraction) is 9.21e-05.

What about the solubility (mole fraction) (in n-propanol, 318.15 K) of the same compound?
The solubility (mole fraction) was 0.000116.

And the solubility (mole fraction) (in sec-butanol, 278.15 K)?
Its solubility (mole fraction) is 1.62e-05.

And the solubility (mole fraction) (in sec-butanol, 283.15 K)?
Its solubility (mole fraction) is 2.05e-05.

And the solubility (mole fraction) (in sec-butanol, 288.15 K)?
Its solubility (mole fraction) is 2.71e-05.

And the solubility (mole fraction) (in sec-butanol, 293.15 K)?
The solubility (mole fraction) was 3.67e-05.

And the solubility (mole fraction) (in sec-butanol, 298.15 K)?
Its solubility (mole fraction) is 4.52e-05.

And the solubility (mole fraction) (in sec-butanol, 303.15 K)?
Its solubility (mole fraction) is 5.44e-05.

And the solubility (mole fraction) (in sec-butanol, 308.15 K)?
The solubility (mole fraction) was 6.76e-05.

What about the solubility (mole fraction) (in sec-butanol, 313.15 K) of the same compound?
The solubility (mole fraction) was 8.02e-05.

What about the solubility (mole fraction) (in sec-butanol, 318.15 K) of the same compound?
The solubility (mole fraction) was 9.79e-05.

And the solubility (mole fraction) (in water, 278.15 K)?
Its solubility (mole fraction) is 2.2e-07.

What about the solubility (mole fraction) (in water, 283.15 K) of the same compound?
Its solubility (mole fraction) is 3.21e-07.

What about the solubility (mole fraction) (in water, 288.15 K) of the same compound?
Its solubility (mole fraction) is 4.43e-07.

And the solubility (mole fraction) (in water, 293.15 K)?
Its solubility (mole fraction) is 5.69e-07.

What about the solubility (mole fraction) (in water, 298.15 K) of the same compound?
Its solubility (mole fraction) is 8.07e-07.

And the solubility (mole fraction) (in water, 303.15 K)?
The solubility (mole fraction) was 1.21e-06.

What about the solubility (mole fraction) (in water, 308.15 K) of the same compound?
Its solubility (mole fraction) is 1.64e-06.

And the solubility (mole fraction) (in water, 313.15 K)?
The solubility (mole fraction) was 2.22e-06.

What about the solubility (mole fraction) (in water, 318.15 K) of the same compound?
Its solubility (mole fraction) is 2.82e-06.
